Measurements: US10912774B2, “Pyrimidine FGFR4 inhibitors” (priority 2013, dated 2021)

System: HEP3B tumor xenografts
Type: in vivo
[1] = Hep3B xenograft, 60 mg/kg orally twice daily

Compound	efficacy compared with compound 108 [1]	tolerability (health of animals) [1]	efficacy compared with BGJ398 (Hep3B xenograft, 25, 37.5 or 50 mg/kg i.p. twice daily)
CCN1CCN(c2ccc(Nc3cc(N(C)C(=O)Nc4c(Cl)c(OC)cc(OC)c4Cl)ncn3)cc2)CC1 [BGJ398]	efficacy comparable to compound 108	had to be terminated on Day 11 due to poor health of animals	–
C=CC(=O)Nc1cc(N2CCN(CC)CC2)ccc1Nc1cc(N(C)C(=O)Nc2c(Cl)c(OC)cc(OC)c2Cl)ncn1 [Compound 108, N-(2-(6-(3-(2,6-Dichloro-3,5-dimethoxyphenyl)-1-methylureido)pyrimidin-4-ylamino)-5-(4-ethylpiperazin-1-yl)-phenyl)acrylamide]	–	–	more efficacious than BGJ398 at tolerable dosage levels
